In patent US9518000B2, “Bicyclo [2.2.1] acid GPR120 modulators” (BRISTOL-MYERS SQUIBB COMPANY, priority 2013, dated 2016):
pEC50: −log10 of the molar value.

The compounds below were run against human GPR120 (Homo sapiens (Human), UniProt Q5NUL3) (assay: GPR120 pERK AlphaScreen SureFire Assay (human GPR120 pERK assay)). Conditions: CHOA12 or CHO-K1 cells stably transfected with the short form of human GPR120 receptor; phosphorylated ERK; read-out: EC50 values measured in the human GPR120 pERK assay.
human GPR120, sequence (Q5NUL3 whole entry): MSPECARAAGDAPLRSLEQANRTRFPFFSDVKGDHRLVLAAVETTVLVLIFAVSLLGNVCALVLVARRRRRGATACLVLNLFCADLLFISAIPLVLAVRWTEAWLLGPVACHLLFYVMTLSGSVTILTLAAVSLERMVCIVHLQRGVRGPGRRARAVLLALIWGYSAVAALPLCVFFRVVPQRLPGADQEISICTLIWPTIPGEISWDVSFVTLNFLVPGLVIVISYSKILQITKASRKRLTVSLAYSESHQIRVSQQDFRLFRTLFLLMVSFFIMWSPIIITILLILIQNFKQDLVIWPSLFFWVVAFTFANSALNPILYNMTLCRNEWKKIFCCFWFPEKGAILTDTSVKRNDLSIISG
Assay type: cell-based
From the text: GPR120 activity was monitored by measuring phosphorylation of ERK (pERK), since G protein receptors are known to activate the ERK signaling cascade either directly and/or through recruitment of arrestin that serves as a scaffold for downstream signaling events.
GPR120 pERK AlphaScreen SureFire Assay
The human and mouse GPR120-mediated intracellular phosphorylated ERK assays were established using CHOA12 cells stably transfected with the short form of human or mouse GPR120 receptor. Cells were cultured in growth medium consisting of F-12 media (Invitrogen Cat. #11765) with 5% Charcoal/Dextran FBS (Invitrogen Cat. #12676-029), 500 μg/mL GENETICIN® (Life Technologies Cat. #10131-027) and 250 μg/mL Zeocin (Invitrogen Cat. #R250-01). Cells were cryo preserved at a concentration of 2×10^7 cells/mL, in 90% Charcoal/Dextran FBS and 10% DMSO, and frozen in liquid nitrogen at a low passage number.
For the pERK assay, 2×10^7 cells/mL cryopreserved human and mouse cells were thawed rapidly in a 37° C. water bath and added to a T-225 flask containing 50 mL growth medium. The flasks were placed in a tissue culture incubator overnight (37° C., 5% CO2). The next day, cells were harvested with trypsin (Gibco Cat. #25300-054), resuspended in serum-containing growth medium and counted using a Cellometer and volume adjusted to a concentration of 0.6×10^6 cells/mL. Cells were plated into 384-well clear bottom tissue culture plates (BD Cat. #353962) at 50 μL/well, for a density of 30,000 cells/well using a MULTIDROP® and incubated for 16-18 hours (overnight) at 37° C. with 5% CO2. The next day, cells were serum starved in 30 μL of F-12 media without any serum or antibiotics for 2 hours at 37° C.
Test compounds were 3-fold, 11-point serially diluted in DMSO in a REMP assay plate (Matrix Cat. #4307) by Tecan and 5 μL was transferred into an ECHO source plate (LabCyte Cat. #LC-0200). Cells were then stimulated with 50 nL of compound dilutions using ECHO liquid handler for 7 minutes at 37° C. Compounds ranged from final assay concentrations of 33.33 μM to 0.56 nM.
The media was then dumped and cells lysed with 20 μL of 1× Lysis buffer from the AlphaScreen SureFire Phospho-ERK 1/2 Kit (Perkin Elmer Cat. #6760617M). The lysis buffer was diluted 5-fold with water before use. The plate was agitated on a shaker for 10 minutes after which 2 μL was transferred into a 384-well white proxiplate (Perkin Elmer Cat. #6008289). The SureFire assay reagent mix was prepared by mixing 60 parts Reaction Buffer, 10 parts Activation Buffer, 1 part Donor Beads, 1 part Acceptor Beads (Perkin Elmer Cat. #TGRES10K). 3.5 μL/well of this reagent mix was manually added to the proxiplate with a multichannel pipettor. Plates were spun down at 1000 rpm for 2 minutes, followed by light-protected incubation at room temperature for 2 hours. The plates were read on the Alpha-technology compatible Envision multilabel plate reader using AlphaScreen protocol according to manufacturer's specifications. The agonist effect of compounds was expressed as 100×(average sample-average blank)/(average total−average blank) where sample is the luminescence activity in the presence of test compound, blank is equal to the luminescence activity in the presence of DMSO control and the total is signal induced by 50 μM linolenic acid as reference compound. Activation data for the test compound over a range of concentrations was plotted as percentage activation of the test compound (100%=maximum response). After correcting for background, EC50 values were determined. The EC50 is defined as the concentration of test compound which produces 50% of the maximal response and was quantified using the 4 parameter logistic equation to fit the data.
The human and mouse GPR120-mediated intracellular phosphorylated ERK assays were also established using CHO-K1 cells stably transfected with the short form of human or mouse GPR120 receptor. […]
Compound `CC(CCC12CCC(OCc3ccccc3Oc3ccccc3)(CC1)C2)C(=O)O` (stereo not drawn) [Example 68, 2-Methyl-4-(4-(2-phenoxybenzyloxy)bicyclo[2.2.1]heptan-1-yl)butanoic acid] has a pEC50 of 6.00.
`O=C(O)CCC12CCC(OCCc3cc(OC(F)(F)F)ccc3F)(CC1)C2` [Example 89, 3-((1S,4R)-4-(2-fluoro-5-(trifluoromethoxy)phenethoxy)bicyclo [2.2.1]heptan-1-yl) propanoic acid] showed a pEC50 of 5.58.
Compound `O=C(O)CCCC12CCC(OCc3cc(Cl)ccc3F)(CC1)C2` [Example 52, 4-(4-(5-chloro-2-fluorobenzyl-oxy)bicyclo [2.2.1]heptan-1-yl)butanoic acid] has a pEC50 of 6.16.
For `CC(OC12CCC(COCC(=O)O)(CC1)C2)c1cc(F)cc(Oc2ccc(F)cc2)c1` (stereo not drawn) [Example 76, 2-((4-(1-(3-fluoro-5-(4-fluorophenoxy)phenyl)ethoxy)bicyclo[2.2.1]heptan-1-yl)methoxy)acetic acid], the pEC50 was 5.52.
`O=C(O)CCCC12CCC(OCc3cc([N+](=O)[O-])ccc3Cl)(CC1)C2` [Example 51, 4-(4-(2-chloro-5-nitrobenzyloxy)bicyclo[2.2.1]heptan-1-yl) butanoic acid] showed a pEC50 of 5.62.
Work on `O=C(O)CCC12CCC(OCc3cc(F)cc(Oc4ccccc4)c3)(CC1)C2` [Example 90, 3-(4-((3-fluoro-5-phenoxybenzyl)oxy)bicyclo [2.2.1]heptan-1-yl) propanoic acid] yielded a pEC50 of 5.91.
With `COc1ccc(COC23CCC(CCCC(=O)O)(CC2)C3)c(F)c1` [Example 42, 4-(4-(2-fluoro-4-methoxybenzyl-oxy)bicyclo[2.2.1]heptan-1-yl) butanoic acid] the pEC50 was 5.04.
`O=C(O)CCCC12CCC(OCc3cccc(C(F)(F)F)c3F)(CC1)C2` [Example 46, 4-(4-(2-fluoro-3-(trifluoromethyl)benzyloxy)bicyclo[2.2.1]heptan-1-yl) butanoic acid] showed a pEC50 of 6.54.
For `O=C(O)CCCC12CCC(OCc3cccc(-c4ccccc4)c3)(CC1)C2` [Example 57, 4-(4-(biphenyl-3-ylmethoxy)bicyclo[2.2.1]heptan-1-yl) butanoic acid], the pEC50 was 6.11.
In the case of `O=C(O)CCCC12CCC(OCc3cccc(Cl)c3F)(CC1)C2` [Example 45, 4-(4-(3-chloro-2-fluorobenzyl-oxy)bicyclo [2.2.1]heptan-1-yl)butanoic acid], the pEC50 was 6.15.
Work on “3-(4-(3-fluoro-5-(4- fluorophenoxy)benzyloxy) bicyclo[2.2.1]heptan-1-yloxy) propanoic acid [Example 81]” yielded a pEC50 of 6.46.
`CC1(C)Cc2cc(Cl)cc(COC34CCC(CCCC(=O)O)(CC3)C4)c2O1` [Example 3, 4-(4-((5-chloro-2,2-dimethyl-2,3-dihydro-benzofuran-7-yl)methoxy)bicyclo[2.2.1]heptan-1-yl) butanoic acid] gave a pEC50 of 6.28.
`COc1cc(COC23CCC(CCCC(=O)O)(CC2)C3)cc(OC)c1` [Example 21, 4-(4-(3,5-dimethoxybenzyl-oxy)bicyclo [2.2.1]heptan-1-yl)butanoic acid] was tested, and the pEC50 was 5.72.
In the case of `O=C(O)CCCC12CCC(OCc3ccc(Oc4ccccc4)cc3)(CC1)C2` [Example 58, 4-(4-(4-phenoxy-benzyloxy)bicyclo[2.2.1]heptan-1-yl) butanoic acid], the pEC50 was 5.76.
In the case of `O=C(O)CCCC12CCC(OCc3csc4ccc(Cl)cc34)(CC1)C2` [Example 30, 4-(4-((5-chlorobenzo[b]thiophen-3-yl)methoxy)bicyclo[2.2.1]heptan-1-yl) butanoic acid], the pEC50 was 6.07.
`CSc1nccc(COC23CCC(CCCC(=O)O)(CC2)C3)n1` [Example 67, 4-(4-((2-(methylthio)pyrimidin-4-yl)methoxy)bicyclo[2.2.1]heptan-1-yl) butanoic acid] was tested, and the pEC50 was 5.30.
In the case of `O=C(O)CCCC12CCC(OCc3cc(C(F)(F)F)ccc3Cl)(CC1)C2` [Example 63, 4-(4-(2-chloro-5-(trifluoromethyl)benzyloxy)bicyclo[2.2.1]heptan-1-yl) butanoic acid], the pEC50 was 5.61.
`O=C(O)CCCC12CCC(OCc3cccc(C(=O)c4ccccc4)c3)(CC1)C2` [Example 39, 4-(4-(3-benzoyl-benzyloxy)bicyclo[2.2.1]heptan-1-yl) butanoic acid] showed a pEC50 of 6.09.
With `O=C(O)CCCC12CCC(OCc3ccccc3Cl)(CC1)C2` [Example 10, 4-(4-(2-chloro-benzyloxy)bicyclo[2.2.1]heptan-1-yl) butanoic acid] the pEC50 was 5.58.
`O=C(O)CCCC12CCC(OCc3ccccc3Oc3ccccc3)(CC1)C2` [Example 14, 4-(4-(2-phenoxy-benzyloxy)bicyclo[2.2.1]heptan-1-yl) butanoic acid] showed a pEC50 of 6.57.
`COc1ccc(Br)cc1COC12CCC(CCCC(=O)O)(CC1)C2` [Example 60, 4-(4-(5-bromo-2-methoxybenzyl-oxy)bicyclo [2.2.1]heptan-1-yl)butanoic acid] showed a pEC50 of 5.38.
In the case of `O=C(O)CCCC12CCC(OCc3c(F)ccc(F)c3F)(CC1)C2` [Example 47, 4-(4-(2,3,6-trifluorobenzyl-oxy)bicyclo [2.2.1]heptan-1-yl)butanoic acid], the pEC50 was 5.11.
Work on `O=C(O)CCC12CCC(OCCc3cccc4ccccc34)(CC1)C2` [Example 87, 3-(4-(2-(naphthalen-1-yl)ethoxy)bicyclo [2.2.1]heptan-1-yl) propanoic acid] yielded a pEC50 of 5.88.
In the case of `Cc1ccc(Br)cc1COC12CCC(CCCC(=O)O)(CC1)C2` [Example 62, 4-(4-(5-bromo-2-methylbenzyl-oxy)bicyclo [2.2.1]heptan-1-yl)butanoic acid], the pEC50 was 6.09.
In the case of “3-(4-(2-phenoxybenzyloxy) bicyclo[2.2.1]heptan-1-yloxy) propanoic acid [Example 80]”, the pEC50 was 5.56.
`O=C(O)CCCC12CCC(OCc3cccc(F)c3F)(CC1)C2` [Example 53, 4-(4-(2,3-difluorobenzyloxy)bicyclo[2.2.1]heptan-1-yl) butanoic acid] was tested, and the pEC50 was 5.21.
In the case of `O=C(O)COCC12CCC(OCc3cc(Cl)cc(OC(F)(F)F)c3)(CC1)C2` [Example 78, 2-((4-((3-chloro-5-(trifluoromethoxy)benzyl)oxy)bicyclo[2.2.1]heptan-1-yl)methoxy)acetic acid], the pEC50 was 6.03.
Compound `O=C(O)CCCC12CCC(OCc3cccc(C(F)(F)F)c3)(CC1)C2` [Example 65, 4-(4-(3-(trifluoro-methyl)benzyloxy)bicyclo[2.2.1]heptan-1-yl) butanoic acid] has a pEC50 of 5.90.
`O=C(CCCC12CCC(OCc3cccc(Oc4ccccc4)c3)(CC1)C2)N1CC(O)C1` [Example 85, 1-(3-Hydroxyazetidin-1-yl)-4-(4-((3-phenoxybenzyl)oxy)bicyclo[2.2.1]heptan-1-yl)butan-1-one] was tested, and the pEC50 was 5.62.
With `O=C(O)COCC12CCC(OCc3ccccc3Oc3ccccc3)(CC1)C2` [Example 72, 2-((4-(2-Phenoxybenzyloxy)bicyclo[2.2.1]heptan-1-yl)methoxy)acetic acid] the pEC50 was 5.95.
With `O=C(O)CCCC12CCC(OCc3cccc(OC(F)(F)F)c3)(CC1)C2` [Example 26, 4-(4-(3-(trifluoro-methoxy)benzyl-oxy)bicyclo[2.2.1]heptan-1-yl) butanoic acid] the pEC50 was 6.21.
With `O=C(O)CCCC12CCC(OCc3cc(Cl)cc(Cl)c3)(CC1)C2` [Example 4, 4-(4-(3,5-dichloro-benzyloxy)bicyclo[2.2.1]heptan-1-yl) butanoic acid] the pEC50 was 6.19.
For `CC(C)Oc1ccccc1COC12CCC(CCCC(=O)O)(CC1)C2` [Example 36, 4-(4-(2-isopropoxy-benzyloxy)bicyclo [2.2.1]heptan-1-yl)butanoic acid], the pEC50 was 5.81.
